Results: patent EP0134242B1, “[…] ANTIGEN” (NEW YORK UNIVERSITY, priority 1983, dated 1984)

Tests used:
[1] = test system: 2G3, 5H8, and 8B8 antibodies; assay: Inhibition immunoassays with peptide analogs, results in words for several antibodies together; assay type: binding, mouse; settings: for inhibition of the reaction of antibodies 2G3, 5H8 and 8B8 with the antigen (in words): P. knowlesi CS protein as antigen
Method: (§1) Competitive inhibition of the antigen-antibody reaction by the thus synthesized peptides was measured by the following radioimmunoassay. P.knowlesi sporozoite CS protein was used as the antigen. • a) Preparation of antigen: 3,000 purified P. knowlesi sporozoites (Vanderberg et al., Military Medicine 134:1183, 1969) in 50 µl of phosphate buffered saline (PBS) containing protease inhibitors, were delivered to the bottom of polystyrene (Falcon 3911 plate, B-D and Co., Oxnard, Calif.) microtiter plates, which were sealed with parafilm and frozen at -70°C for at least ten minutes. The plates were then allowed to defrost slowly at room temperature. This procedure was repeated six times. Then the plates were incubated at 4°C overnight, and at 56°C for five minutes. The P. knowlesi extract was then removed from the wells and these were washed three times with PBS containing 1% bovine serum albumin (BSA) and 0.1% NaN₃. The wells were then filled with PBS-BSA-NaN₃ and incubated for a few hours at room temperature. • b) Preparation of peptides and two-site radio immunoassay to determine the inhibitory activity of the analogs; • (1) All synthetic peptides were dissolved in PBS at a concentration of 10 mM and subsequently diluted serially in PBS-1% BSA/0.1%NaN₃. Twenty-five µl of serial dilutions of each peptide were added to the wells coated with antigen. Control wells received only the diluent. Then, 25 µl of the ¹²⁵I-labelled monoclonal antibody (about 5-10ng, 10⁵cpm) were added to the wells. The microtiter plates were incubated at 4°C for 18 hours, washed 5 times with PBS-BSA-NaN₃ and then the wells were counted for well-bound antibody.
The series of shorter analogs and one peptide overlapping two epitopes (7-6) shown in Table VII was used to analyze the specificity of the 2G3, 5H8, and 8B8 antibodies using the inhibition immunoassays described in Examples 10 and 11. […] On a molar basis, their activities were similar, although in some instances the larger peptides appeared to be slightly better inhibitors. […]

monoclonal antibody 2G3 = assay: Two-site immunoradiometric assay with monoclonal antibody 2G3 and synthetic peptides; assay type: binding, mouse
Method: Wells of microtiter plates (Falcon 3911) were incubated overnight at 4°C with 50 µl of a 10 µg/ml solution in PBS of the monoclonal 2G3 anti-CS protein of P.knowlesi. The wells were washed with PBS and then incubated for 2 hours at room temperature, with PBS-Tween 20 (0.05% (w/v), and then for 3 additional hours with PBS-BSA (1% (w/v). The synthetic peptides were diluted serially in PBS-BSA-Tween 20, and 30 µl aliquots of the dilutions were delivered to the bottom of individual wells. The plates were incubated overnight in the refrigerator, washed with PBS-BSA-Tween 20, and incubated with 5.0 µl (10 ng) of ¹²⁵I-labeled monoclonal antibody 2G3 diluted in PBS-BSA-Tween 20 (about 100,000 cpm). Controls consisted of plates coated with a non-relevant monoclonal antibody of the same isotype as 2G3. Specific counts were found only in wells incubated with the 24-MER and they were proportional to the dose of peptide added to the well.

[2] = test system: monoclonal antibody (2G3); assay: Inhibition by 12-MER of the binding of P. knowlesi CS protein to monoclonal antibody 2G3 (two-site assay); set-up: species or system mouse
Method: To distinguish between these possibilities, an assay was conducted to determine the ability of the 12-MER to inhibit the interaction between the CS proteins of P.knowlesi and the monoclonal antibody 2G3. The inhibition assay was performed as follows: Wells of microtiter plates were coated with the monoclonal antibody 2G3 washed with Tween-20, saturated with BSA as described supra. In one series of tubes, the 12-MER was serially diluted in PBS-BSA-Tween 20. In a second series of tubes, an extract of P.knowlesi sporozoites (prepared as described by Cochrane, et al, supra) was serially diluted in PBS-BSA-Tween 20. Aliquots of each dilution of sporozoites were mixed with equal volumes of all dilutions of 12-MER. 30 µl of these mixtures were then added to the bottom of the 2G3-coated wells. As positive and negative controls, 30 µl aliquots of sporozoite dilutions mixed with PBS-BSA-Tween 20 were added to other wells which had been precoated with 2G3 or with a non-relevant monoclonal antibody. After overnight incubation in the refrigerator, the wells were washed and 50 µl (10 ug) of ¹²⁵I-labeled 2G3 diluted in PBS-BSA-Tween 20 were added. Following an additional incubation at room temperature for 1 hour, the wells were washed and counted in a gamma counter. The results are shown in Table V. The 12-MER inhibited, in a dose-dependent fashion, the interaction of the P.knowlesi CS protein with 2G3.

antibody 8E11 = assay: Inhibition by synthetic peptides of binding of radiolabelled monoclonal antibody to CS protein (radioimmunoassay); set-up: species or system mouse; settings: at a concentration of 10⁻²M
Method: as §1, with “The wells were then filled with PBS-BSA-NaN₃ and incubated for a few hours at room temperature. • b) Preparation of peptides and two-site radio immunoassay to determine the inhibitory activity of the analogs; • (1) All synthetic peptides were dissolved in PBS at a concentration of 10 mM and subsequently diluted serially in PBS-1% BSA/0.1%NaN₃. Twenty-five µl of serial dilutions of each peptide were added to the wells coated with antigen. Control wells received only the diluent. Then, 25 µl of the ¹²⁵I-labelled monoclonal antibody (about 5-10ng, 10⁵cpm) were added to the wells.” left out, “antibody. […]” for “antibody.”

Substance | activity in the inhibition assays of the foregoing Examples (in words) ([1]; assayed as in the foregoing Examples (antibodies 2G3, 5H8, 8B8, 8E11)) | inhibition of the reaction of antibodies 2G3, 5H8 and 8B8 with the antigen (in words) [1] | Amount of radiolabeled 2G3 (cpm) bound in wells (monoclonal antibody 2G3; peptide 5. µg/ml incubated with the solid-phase antibody 2G3) [cpm] | Amount of radiolabeled 2G3 (cpm) bound in wells (monoclonal antibody 2G3; peptide 50. µg/ml incubated with the solid-phase antibody 2G3) [cpm] | Amount of radiolabeled 2G3 (cpm) bound in wells (monoclonal antibody 2G3; peptide 500. µg/ml incubated with the solid-phase antibody 2G3) [cpm] | Amount of radiolabeled 2G3 (cpm) bound in wells (monoclonal antibody 2G3; peptide .5 µg/ml incubated with the solid-phase antibody 2G3) [cpm] | Amount of 2G3 bound (cpm) in the presence of the 12-MER inhibitor ([2]; 12-MER 0.08 mg/ml, P. knowlesi extract 10³ sporozoites/ml (no inhibitor: 156)) [cpm] | Amount of 2G3 bound (cpm) in the presence of the 12-MER inhibitor ([2]; 12-MER 0.08 mg/ml, P. knowlesi extract 10⁴ sporozoites/ml (no inhibitor: 1353)) [cpm] | Amount of 2G3 bound (cpm) in the presence of the 12-MER inhibitor ([2]; 12-MER 0.08 mg/ml, P. knowlesi extract 10⁵ sporozoites/ml (no inhibitor: 4390)) [cpm] | Amount of 2G3 bound (cpm) in the presence of the 12-MER inhibitor ([2]; 12-MER 0.08 mg/ml, P. knowlesi extract 10⁶ sporozoites/ml (no inhibitor: 5582)) [cpm] | Amount of 2G3 bound (cpm) in the presence of the 12-MER inhibitor ([2]; 12-MER 0.6 mg/ml, P. knowlesi extract 10³ sporozoites/ml (no inhibitor: 156)) [cpm] | Amount of 2G3 bound (cpm) in the presence of the 12-MER inhibitor ([2]; 12-MER 0.6 mg/ml, P. knowlesi extract 10⁴ sporozoites/ml (no inhibitor: 1353)) [cpm] | Amount of 2G3 bound (cpm) in the presence of the 12-MER inhibitor ([2]; 12-MER 0.6 mg/ml, P. knowlesi extract 10⁵ sporozoites/ml (no inhibitor: 4390)) [cpm] | Amount of 2G3 bound (cpm) in the presence of the 12-MER inhibitor ([2]; 12-MER 0.6 mg/ml, P. knowlesi extract 10⁶ sporozoites/ml (no inhibitor: 5582)) [cpm] | Amount of 2G3 bound (cpm) in the presence of the 12-MER inhibitor ([2]; 12-MER 5.0 mg/ml, P. knowlesi extract 10³ sporozoites/ml (no inhibitor: 156)) [cpm] | Amount of 2G3 bound (cpm) in the presence of the 12-MER inhibitor ([2]; 12-MER 5.0 mg/ml, P. knowlesi extract 10⁴ sporozoites/ml (no inhibitor: 1353)) [cpm] | Amount of 2G3 bound (cpm) in the presence of the 12-MER inhibitor ([2]; 12-MER 5.0 mg/ml, P. knowlesi extract 10⁵ sporozoites/ml (no inhibitor: 4390)) [cpm] | Amount of 2G3 bound (cpm) in the presence of the 12-MER inhibitor ([2]; 12-MER 5.0 mg/ml, P. knowlesi extract 10⁶ sporozoites/ml (no inhibitor: 5582)) [cpm] | inhibitory effect on binding of radiolabelled 8E11 to the CS protein (antibody 8E11)
Ala₇-Asn₈-Ala₉-Gly₁₀-Gln₁₁-Pro₁₂-Gln₁-Ala₂-Gln₃-Gly₄-Asp₅-Gly₆ | inactive | – | – | – | – | – | – | – | – | – | – | – | – | – | – | – | – | – | –
Asp₅-Gly-Ala-Asn-Ala-Gly-Gln-Pro₁₂ [5 - 12] | – | strongly inhibitory | – | – | – | – | – | – | – | – | – | – | – | – | – | – | – | – | –
H₂N-GlnAlaGlnGlyAspGlyAla-AsnAlaGlyGlnPro-COOH (H-QAQGDGANAGQP-OH) [Peptide 12-MER] | – | strongly inhibitory | 40 | 103 | 157 | 0 | 72 | 102 | 1221 | 3893 | 0 | 70 | 781 | 3018 | 37 | 3 | 361 | 1099 | no appreciable inhibitory effect
